Reference: patent publication US10336766B2, “Anticancer drug candidates” (THE SCRIPPS RESEARCH INSTITUTE, priority 2015, dated 2019)
Like-named read-outs stand apart in the source and are kept apart here.

Columns and labels:
Format in all cases: cell-based, human
[1] = test system: central nervous system cell line SF-539; experiment: In vitro cytotoxic activity, CELLTITER 96 AQueous One Solution (MTS) assay, SF-539; details: 72 h treatment, mean ± SD of 3 replicates, read-out: IC50 cytotoxicity, SF-539
Protocol: (§1) The in vitro cytotoxic activity (IC50, half maximal inhibitory concentration) of the tiancimycins was tested against selected human cancer cell lines, such as breast cancer cells MDA-MB-468, melanoma cell M14 and SK-MEL-5, non-small cell lung cancer cell NCI-H226, central nervous system cell lines SF-295 and SF-539, and the known enediyne UCM was used as a comparison. Suspended cultures of cells were diluted to a concentration of 5×10^4 cells mL^−1 in RPMI 1640 medium supplemented with 10% fetal bovine serum, 100 μgmL^−1 streptomycin, and 100 UmL^−1 penicillin. The suspended cultures were dispensed into 96-well microtiter plates (100 μL per well) and the plates were incubated for 24 hours at 37° C. in an atmosphere of 5% CO2, 95% air, and 100% humidity. After incubation, original medium was removed and 100 μL of fresh medium was added, followed by adding serial dilutions of the tiancimycins (A, B, and C, 1 μl) and UCM (1 μl) in DMSO. The concentration of the tested compounds was ranged from 0 to 100 nM. Plates were incubated under the above conditions for 72 hours. After incubation, 20 μl CELLTITER 96® AQueous One Solution Reagent (Promega Corp, Madison, Wis., USA) was added to the plates and incubated at 37° C. in a humidified, 5% CO2 atmosphere for 30 to 60 min. The absorbance at 490 nm was recorded using an ELISA plate reader. Each point represents the mean±SD of 3 replicates. The IC50 was determined by computerized curve fitting.
(§2) Antitumor activities were assessed using CELLTITER 96® Aqueous One Solution Proliferation Assay (MTS) (Promega Corp.). Cells were plated in 96-well plate at 5000 cells/well and allowed to adhere overnight at 37° C. in a humidified atmosphere of 5% CO2. Medium was then removed and replaced by fresh culture medium containing different concentrations of different drugs. The cells were treated for 72 h before the assay was developed. All assay values were measured in triplicate.

melanoma cell SK-MEL-5 = experiment: In vitro cytotoxic activity, CELLTITER 96 AQueous One Solution (MTS) assay, SK-MEL-5; details: 72 h treatment, mean ± SD of 3 replicates, read-out: IC50 cytotoxicity, SK-MEL-5
Protocol: as §1, §2

[2] = test system: central nervous system cell line SF-295; experiment: In vitro cytotoxic activity, CELLTITER 96 AQueous One Solution (MTS) assay, SF-295; details: 72 h treatment, mean ± SD of 3 replicates, read-out: IC50 cytotoxicity, SF-295
Protocol: as §1, §2

[3] = test system: breast cancer cells MDA-MB-468; experiment: In vitro cytotoxic activity, CELLTITER 96 AQueous One Solution (MTS) assay, MDA-MB-468; details: 72 h treatment, mean ± SD of 3 replicates, read-out: IC50 cytotoxicity, MDA-MB-468
Protocol: as §1, §2

[4] = test system: non-small cell lung cancer cell NCI-H226; experiment: In vitro cytotoxic activity, CELLTITER 96 AQueous One Solution (MTS) assay, NCI-H226; details: 72 h treatment, mean ± SD of 3 replicates, read-out: IC50 cytotoxicity, NCI-H226
Protocol: as §1, §2

melanoma cell M14 = experiment: In vitro cytotoxic activity, CELLTITER 96 AQueous One Solution (MTS) assay, M14; details: 72 h treatment, mean ± SD of 3 replicates, read-out: IC50 cytotoxicity, M14
Protocol: as §1, §2

Row | SMILES | IC50 ([1]; Homo sapiens) | IC50 (melanoma cell SK-MEL-5; Homo sapiens) | IC50 ([2]; Homo sapiens) | IC50 ([3]; Homo sapiens) | IC50 ([4]; Homo sapiens) | IC50 (melanoma cell M14; Homo sapiens) | IC50 [1] | IC50 (melanoma cell SK-MEL-5) | IC50 [2] | IC50 [3] | IC50 [4] | IC50 (melanoma cell M14)
1 | COc1ccc2c(c1O)C(=O)c1c3c(cc(O)c1C2=O)C12O[C@@]1([C@@H](C)O)[C@H](C#C/C=C\C#C[C@H]2O)N3 [TNM A, tiancimycin A] | 300 ± 80 pM | 190 ± 10 pM | 140 ± 10 pM | 100 ± 10 pM | 2300 ± 100 pM | 140 ± 10 pM | – | – | – | – | – | –
2 | COC(=O)/C=C(\C)[C@@]12OC13c1cc(O)c4c(c1N[C@H]2C#C/C=C\C#C[C@H]3O)C(=O)c1ccccc1C4=O [TNM B, tiancimycin B] | 230 ± 50 pM | 190 ± 40 pM | 260 ± 20 pM | 100 ± 10 pM | 2800 ± 100 pM | 240 ± 10 pM | – | – | – | – | – | –
3 | COC(=O)C(O)C(C)(O)[C@@]12OC13c1cc(O)c4c(c1N[C@H]2C#C/C=C\C#C[C@H]3O)C(=O)c1c(ccc(O)c1O)C4=O (stereo partly drawn) [TNM C, tiancimycin C] | 300 ± 50 pM | 140 ± 20 pM | 280 ± 20 pM | 70 ± 10 pM | 3300 ± 300 pM | 250 ± 10 pM | – | – | – | – | – | –
4 | CC(O)[C@@]12O[C@]13c1cc(O)c4c(c1N[C@H]2C#C/C=C\C#C[C@H]3O)C(=O)c1ccccc1C4=O (stereo partly drawn) [UCM, uncialamycin, reference compound] | – | – | – | – | – | – | 670 ± 30 pM | 1700 ± 100 pM | 510 ± 50 pM | 220 ± 30 pM | 4100 ± 200 pM | 470 ± 70 pM
